Values of other authors in patent publication US20150313904A1 (Teva Pharmaceuticals Ltd., priority 2014, published 2015).

Tested on: Crohn's disease patients
Conditions: azathioprine-treated patients; Summers et al. 1979

SMILES: Cn1cnc([N+](=O)[O-])c1Sc1ncnc2nc[nH]c12 [azathioprine]
- time of maximum decrease in the mean CDAI score: 9 weeks
